Results published in patent US9266880B2, “Substituted azaindazole compounds” (Bristol-Myers Squibb Company, priority 2010, dated 2016).
pIC50: −log10 of the molar value.

Molecular target: Human CYP17 (Homo sapiens (Human), UniProt P05093)
Test: CYP17 Total SPA Assay
Type: biochemical
Conditions: microsomes from HEK2 cells stably transfected with CYP17; 3H-Pregnenolone 1 uM, NADPH 2 mM; 45 minutes at room temperature
Experimental: The assays were performed in U-bottom 384-well optiplates. The final assay volume was 15 μl prepared from 7.5 μl additions of microsomes (prepared as a high-speed pellet from homogenized HEK2 cells stably transfected with CYP17), substrates (3H— Pregnenolone and NADPH) and test compounds in assay buffer (50 mM Potassium phosphate pH 7.2, 10% glycerol). The reaction was initiated by the combination of the microsomes and substrates in wells containing compound. The reaction was incubated at room temperature for 45 minutes and terminated by adding 7.5 μl of 0.2N HCl to each well. Following an incubation period of 10 minutes, anti-DHEA-coated SPA beads were added to the terminated reaction. The plate was sealed and incubated overnight with shaking at 4° C. The beads were allowed to settle in the plate for 1 hour and the plate read on a TOPCOUNT® (Perkin-Elmer) plate reader.
Inhibition data were calculated by comparison to no enzyme control reactions for 100% inhibition and vehicle-only reactions for 0% inhibition. The final concentration of reagents in the assays are NADPH, 2 mM; 3H-Pregnenolone, 1 uM; microsomes, 1.25 ug/ml; Anti-DHEA-SPA beads (0.125 mg/well) in 0.5% Triton X-100 and DMSO, 0.05%. Dose response curves were generated to determine the concentration required inhibiting 50% of enzyme activity (IC50). Compounds were dissolved at 10 mM in dimethylsulfoxide (DMSO) and evaluated at eleven concentrations, each in duplicate. IC50 values were derived by non-linear regression analysis.

Sequence of Human CYP17 (P05093 whole entry): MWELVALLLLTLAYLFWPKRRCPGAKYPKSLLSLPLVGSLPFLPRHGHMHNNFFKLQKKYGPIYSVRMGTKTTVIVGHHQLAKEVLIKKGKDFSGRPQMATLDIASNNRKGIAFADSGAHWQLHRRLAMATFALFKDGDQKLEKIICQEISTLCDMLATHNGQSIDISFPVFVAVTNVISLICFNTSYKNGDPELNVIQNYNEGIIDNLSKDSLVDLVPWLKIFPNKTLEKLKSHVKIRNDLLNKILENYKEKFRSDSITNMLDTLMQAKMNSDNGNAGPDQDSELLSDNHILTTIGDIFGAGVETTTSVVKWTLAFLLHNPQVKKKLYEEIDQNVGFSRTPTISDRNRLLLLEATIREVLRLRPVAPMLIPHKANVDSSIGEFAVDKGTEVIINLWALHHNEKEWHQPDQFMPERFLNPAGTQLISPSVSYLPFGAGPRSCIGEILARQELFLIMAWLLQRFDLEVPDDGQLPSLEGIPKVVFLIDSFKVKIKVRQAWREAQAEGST

With `Fc1ccc(-n2ncc3c(-c4cncc5ccccc45)ccnc32)cc1` [Example 1, 4-(1-(4-Fluorophenyl)-1H-pyrazolo[3,4-b]pyridin-4-yl)isoquinoline] as the compound, how does the pIC50 read?
Its pIC50 is 6.89.

`Fc1ccc(-n2ncc3c(-n4ccnc4)ccnc32)cc1` [Example 2, 1-(4-Fluorophenyl)-4-(1H-imidazol-1-yl)-1H-pyrazolo[3,4-b]pyridine] was tested. Which pIC50 did it give?
Its pIC50 is 6.19.

How did the pIC50 turn out when `Fc1ccc(-n2ncc3c(-c4cncc5ncccc45)ccnc32)cc1` [Example 3, 5-(1-(4-Fluorophenyl)-1H-pyrazolo[3,4-b]pyridin-4-yl)-1,7-naphthyridine] was run?
Its pIC50 is 7.39.

How did the pIC50 turn out when `Cn1cncc1-c1ccnc2c1cnn2-c1ccc(F)cc1` [Example 4, 1-(4-Fluorophenyl)-4-(1-methyl-1H-imidazol-5-yl)-1H-pyrazolo[3,4-b]pyridine] was run?
Its pIC50 is 7.30.

`NS(=O)(=O)c1cccc(-n2ncc3c(-c4cncc5ncccc45)ccnc32)c1` [Example 5, 3-(4-(1,7-Naphthyridin-5-yl)-1H-pyrazolo[3,4-b]pyridin-1-yl)benzenesulfonamide] was tested. Which pIC50 did it give?
The pIC50 was 6.69.

`Cn1cncc1-c1ccnc2c1cnn2-c1cccc(S(N)(=O)=O)c1` [Example 6, 3-(4-(1-Methyl-1H-imidazol-5-yl)-1H-pyrazolo[3,4-b]pyridin-1-yl)benzenesulfonamide] was tested. Which pIC50 did it give?
Its pIC50 is 6.57.

How did the pIC50 turn out when `NS(=O)(=O)c1cccc(-n2ncc3c(-c4cncc5ccccc45)ccnc32)c1` [Example 7, 3-(4-(Isoquinolin-4-yl)-1H-pyrazolo[3,4-b]pyridin-1-yl)benzenesulfonamide] was run?
Its pIC50 is 7.64.

How did the pIC50 turn out when `Fc1ccc(-n2ncc3c(-c4cncn5cccc45)ccnc32)c(F)c1` [Example 8, 1-(2,4-Difluorophenyl)-4-(pyrrolo[1,2-c]pyrimidin-4-yl)-1H-pyrazolo[3,4-b]pyridine] was run?
Its pIC50 is 7.12.
